What all share (format): biochemical
One assay deals with I260M pol β (Homo sapiens, UniProt P06746, I260M). The settings on record: for Kd / kpol: 37 °C.
Assay [1] has as its target WT pol β (Homo sapiens, UniProt P06746). The settings on record: WT; for Kd / kpol: 37 °C.
Assay [2] concerns WT pol β. The settings on record: D kpol WT analogue/D kpol I260M analogue.
[3] abbreviates: I260M, A-G: misincorporation of dGTP (analogue) opposite template A.
[4] abbreviates: A-G: misincorporation of dGTP (analogue) opposite template A.
Setting [5] is: I260M, A-T: correct incorporation of dTTP (analogue) opposite template A.
[6] abbreviates: A-T: correct incorporation of dTTP (analogue) opposite template A.

Four molecules from article PMC5634933 (Biochemistry, 2017) can be followed below.

Like-named read-outs stand apart in the source and are kept apart here.

Consider `Nc1nc2c(ncn2[C@H]2C[C@H](O)[C@@H](COP(=O)(O)OP(=O)(O)OP(=O)(O)O)O2)c(=O)[nH]1` [A-G O, dGTP, reference compound], for which, on I260M pol β (setting [3]), the “Efficiency (kpol/Kd)” value was 18 ± 9.1 M⁻¹ s⁻¹; the dissociation constant Kd (usually the free concentration of one partner at which half of the binding sites on the other are occupied at equilibrium, for simple one-to-one binding) is 795 ± 373 µM; the kpol was determined as 0.014 ± 0.003 s⁻¹. Besides, at WT pol β [1] (setting [4]), the “Efficiency (kpol/Kd)” value is 22 ± 8.5 M⁻¹ s⁻¹, binding was characterised by a dissociation constant (Kd) of 626 ± 220 µM and the kpol is 0.014 ± 0.002 s⁻¹.

As to `Cc1cn([C@H]2C[C@H](O)[C@@H](COP(=O)(O)OP(=O)(O)CP(=O)(O)O)O2)c(=O)[nH]c1=O` [A-T CH2, β,γ-CH2 dTTP], on I260M pol β (setting [5]), the “Efficiency (kpol/Kd)” value came out at 60000 ± 20000 M⁻¹ s⁻¹, binding was characterised by a dissociation constant (Kd) of 5 ± 1.5 µM and the kpol was 0.30 ± 0.01 s⁻¹. Besides, on WT pol β [1] (setting [6]), the “Efficiency (kpol/Kd)” value was determined as 120000 ± 30000 M⁻¹ s⁻¹, binding was put at a Kd of 6.7 ± 1.8 µM and the kpol was 0.80 ± 0.10 s⁻¹.

Take `Cc1cn([C@H]2C[C@H](O)[C@@H](COP(=O)(O)OP(=O)(O)OP(=O)(O)O)O2)c(=O)[nH]c1=O` [A-T O, dTTP, reference compound]: the “Efficiency (kpol/Kd)” value on I260M pol β (setting [5]) was 200000 ± 80000 M⁻¹ s⁻¹; at WT pol β [1] (setting [6]), 1.22e+06 ± 140000 M⁻¹ s⁻¹. Moreover, the Kd turned out to be 40.1 ± 15.5 µM on I260M pol β (setting [5]) and 10.5 ± 1.1 µM at WT pol β [1] (setting [6]). For the same molecule, the kpol at I260M pol β (setting [5]) amounted to 7.90 ± 1.30 s⁻¹; at I260M pol β (I260M, A-T: correct incorporation of dTTP (analogue) opposite template A, listed as dTTP), 7.9 s⁻¹; at WT pol β [1] (setting [6]) it was 12.8 ± 0.60 s⁻¹; on WT pol β [1] (A-T: correct incorporation of dTTP (analogue) opposite template A, listed as dTTP) it was 12.8 s⁻¹. For the same molecule, on I260M pol β (correct parent dTTP), the “Kd of I260M relative to WT (fold higher)” value is on record as 4 fold.

Turning to CHCl, the “D kpol (analogue/parent)” value on I260M pol β (I260M, D kpol analogue/D kpol parent) is 1.0; at WT pol β [1] (D kpol analogue/D kpol parent), 0.9. Moreover, the “F (analogue/parent)” value at I260M pol β (I260M, F analogue/F parent) is given as 0.6; on WT pol β [1] (F analogue/F parent), 0.5. Also, the “F analogue (fidelity)” value on I260M pol β (I260M, dTTP (correct) vs dGTP (incorrect) analogue opposite template A) stood at 7060; on WT pol β [1] (dTTP (correct) vs dGTP (incorrect) analogue opposite template A), 27818. Besides, the “D kpol(c/i) analogue” value on I260M pol β (I260M, discrimination at kpol = kpol(correct)/kpol (incorrect)) was 551.7; at WT pol β [1] (discrimination at kpol = kpol(correct)/kpol (incorrect)) it was 842.9. This molecule also yielded an I260M/WT analogue at I260M pol β ([F I260M(analogue)]/[F WT (analogue)]) of 0.3. For the same molecule, the “I260M/WT (analogue/parent)” value at I260M pol β ([F I260M(analogue/parent)]/[F WT (analogue/parent)]) was found to be 1.3. Further, the “D kpol analogue WT/I260M” value with WT pol β [2] was 1.5.
